Assay results published in patent publication US5256395A, “Affinity enhancement immunological reagents for in vivo detection and killing of specific target cells” (Immunotech Partners, priority 1986, dated 1993).
Side chains are listed from the residue outwards. Peptide text beside a SMILES is read from it. * marks the point of attachment. Dnp = O=[N+]([O-])c1ccc(*)c([N+](=O)[O-])c1; Ahx = NCCCCCC(=O)O

Tests used:
[1] = tested on: anti-Lyb8.2-anti-DNP conjugate (compound 3) on BALB/c mouse spleen cells; assay: Binding of 111In-labeled probe to mouse spleen cells in the presence of conjugate; settings: 111In-labeled tracer, BALB/c spleen cells 10^7 cells/ml, 37° C., 2 h, compound 3 at 3.10^-9 M
Method: (§1) In an Eppendorf plastic tube are incubated 100 μl of a cell suspension at 3.10^7 cells/ml of a human T-cell line (HPBALL) or of a human B lymphoma line (Namalwa) in phosphate buffered saline supplemented with 0.1% bovine serum albumin, 0.02% azide and 50 mM deoxyglucose, 100 μl of a solution of dual specificity conjugate, anti-CD5 (compound 1) or anti-CALLA (compound 2), at 0.5 μg/ml in the same buffer and 150 μl of radioiodinated compound 6 or compound 7. After 3 h at 4° C. or 37° C. with agitation, 100 μl of the resulting cell suspension are transferred into triplicate 0.4 ml plastic tubes containing 200 μl of a 1.2:1 mixture of dibutyl-phthalate and ethyl-hexyl-phthalate. After 30 sec centrifugation at 10,000 g, 50 μl of the supernatant are collected and counted, and the bottom of the tube, containing the cell pellet, is cut and counted. Results are then expressed as bound/free percentages.
Compound 4, and the monomeric analogue, compound 5, (0.2 nmol) have been labeled with 0.2 mCi of ^111 In chloride by incubation at room temperature in 0.1M citrate buffer for 30 min. […] After incubation of freshly isolated BALB/c mouse spleen cells (10^7 cells/ml) at 37° C. for 2 h in the presence of anti-Lyb8.2-anti-DNPconjugate (compound 3) at 3.10^-9 M, binding of the labeled compounds 4 and 5 was monitored as described in example 4. […]

[2] = tested on: anti-CALLA-anti-DNP dual specificity conjugate (compound 2) on Namalwa cells (human B lymphoma line); assay: Binding of radioiodinated probe to target cells in the presence of excess dual specificity conjugate; settings: for Bound/free (%): compound 2 at 0.5 μg/ml present, 3 h; for Bound/free (%), SB = Specific Binding: excess conjugate present
Method: as §1
(§2) The experimental settings allow cross-controlled experiments, since HPBALL cells express the T-cell marker CD5, but not the tumor-associated antigen CALLA, whereas Namalwa cells express CALLA, but not CD5.

[3] = tested on: anti-CD5-anti-DNP dual specificity conjugate (compound 1; F(ab')2 clone BL1a coupled to anti-DNP Fab' clone U7-27) on HPBALL cells (human T-cell line); assay: as above; settings: for Bound/free (%): compound 1 at 0.5 μg/ml present, 3 h; for Bound/free (%), SB = Specific Binding: excess conjugate present
Method: as §1, §2

[4] = tested on: anti-CALLA-anti-DNP dual specificity conjugate (compound 2; F(ab')2 clone ALB1 coupled to anti-DNP Fab' clone U7-27) with HPBALL cells (human T-cell line); assay: as above; settings: HPBALL cells (no CALLA), compound 2 at 0.5 μg/ml present, 3 h
Method: as §1, §2

[5] = tested on: anti-CD5-anti-DNP dual specificity conjugate (compound 1) with Namalwa cells (human B lymphoma line); assay: as above; settings: Namalwa cells (no CD5), compound 1 at 0.5 μg/ml present, 3 h
Method: as §1, §2

[6] = tested on: anti-CALLA-anti-DNP dual specificity conjugate (compound 2) on Namalwa cells (human B lymphoma line); assay: Binding of radioiodinated probe to target cells after washing the excess dual specificity conjugate; settings: for Bound/free (%): compound 2 1 h then washed 3 times, tracer 2 h; for Bound/free (%), SB = Specific Binding: excess conjugate washed
Method: as §1
(§3) The experimental conditions are similar to that described above but the dual specificity conjugate is incubated first for 1 h, then the cells are washed 3 times and the tracer is added. The cells are then pelleted after another 2 h incubation. Results.

[7] = tested on: anti-CALLA-anti-DNP dual specificity conjugate (compound 2) with HPBALL cells (human T-cell line); assay: as above; settings: HPBALL cells (no CALLA), compound 2 1 h then washed 3 times, tracer 2 h, 37° C.
Method: as §1, §3

[8] = tested on: anti-CD5-anti-DNP dual specificity conjugate (compound 1) on HPBALL cells (human T-cell line); assay: as above; settings: 37° C.; for Bound/free (%): compound 1 1 h then washed 3 times, tracer 2 h; for Bound/free (%), SB = Specific Binding: excess conjugate washed
Method: as §1, §3

[9] = tested on: anti-CD5-anti-DNP dual specificity conjugate (compound 1) with Namalwa cells (human B lymphoma line); assay: as above; settings: Namalwa cells (no CD5), compound 1 1 h then washed 3 times, tracer 2 h
Method: as §1, §3

Structure (SMILES) | bound/free [1] | Bound/free (%) ([2]; 4° C.) | Bound/free (%) ([2]; 37° C.) | Bound/free (%), SB = Specific Binding ([2]; 4° C.) | Bound/free (%), SB = Specific Binding ([2]; 37° C.) | Bound/free (%) ([3]; 4° C.) | Bound/free (%) ([3]; 37° C.) | Bound/free (%), SB = Specific Binding ([3]; 4° C.) | Bound/free (%), SB = Specific Binding ([3]; 37° C.) | Bound/free (%) ([4]; 4° C.) | Bound/free (%) ([4]; 37° C.) | Bound/free (%) ([5]; 4° C.) | Bound/free (%) ([5]; 37° C.) | Bound/free (%) ([6]; 4° C.) | Bound/free (%) ([6]; 37° C.) | Bound/free (%), SB = Specific Binding ([6]; 4° C.) | Bound/free (%), SB = Specific Binding ([6]; 37° C.) | Bound/free (%) [7] | Bound/free (%) [8] | Bound/free (%), SB = Specific Binding [8] | further results
O=C(O)CN(CCN(CC(=O)O)CC(=O)N[C@@H](CCCCNc1ccc([N+](=O)[O-])cc1[N+](=O)[O-])C(=O)O)CCN(CC(=O)O)CC(=O)N[C@@H](CCCCNc1ccc([N+](=O)[O-])cc1[N+](=O)[O-])C(=O)O [compound 4, bis-(N-ε-(2,4-dinitrophenyl)-L-Lysyl)diethylenetriamine-pentaacetic acid] | 26% |  |  |  |  |  |  |  |  |  |  |  |  |  |  |  |  |  |  |  | 
O=C(CCCCCNc1ccc([N+](=O)[O-])cc1[N+](=O)[O-])NCCCC[C@H](NC(=O)[C@H](Cc1ccc(O)cc1)NC(=O)CCCCCNc1ccc([N+](=O)[O-])cc1[N+](=O)[O-])C(=O)O [compound 6, N-α-(2,4-dinitrophenyl-aminocaproyl)-L-tyrosyl-N-ε-(2,4-dinitrophenyl-aminocaproyl)-L-lysine] ({Dnp-Ahx}-Tyr-Lys([Ahx-Dnp])-OH) |  | 23% | 21% | 21% | 17% | 72% | 67% | 56% | 52% | 16% | 15% | 2% | 4% | 145% | 11% | 130% | 7% | 9% | 45% | 36% | Bound/free (%) ([9]; 4° C.): 15%; Bound/free (%) ([9]; 37° C.): 4%
O=C(O)CN(CCN(CC(=O)O)CC(=O)O)CCN(CC(=O)O)CC(=O)N[C@@H](CCCCNc1ccc([N+](=O)[O-])cc1[N+](=O)[O-])C(=O)O [compound 5, (N-ε-(2,4-dinitrophenyl)-L-Lysyl)-diethylenetriamine-pentaacetic acid] | 6% |  |  |  |  |  |  |  |  |  |  |  |  |  |  |  |  |  |  |  | 
O=C(O)CNC(=O)[C@H](Cc1ccc(O)cc1)NC(=O)CCCCCNc1ccc([N+](=O)[O-])cc1[N+](=O)[O-] [compound 7, N-α-(2,4-dinitrophenyl-aminocaproyl)-L-tyrosyl-gylicine] |  | 6% | 5% | 4% | 4% | 38% | 12% | 35% | 9% | 3% | 3% | 2% | 1% | 50% | 4% | 42% | 2% | 3% | 11% | 7% | Bound/free (%) ([9]; 4° C.): 8%; Bound/free (%) ([9]; 37° C.): 2%
